Where two headings read alike, the source gives them in different places.
What was measured:
mice = test: Anti-inflammation effect on vessels using croton oil on mice (technique of Bounameaux and Lecomto); assay type: in vivo
Text: Some of the compounds of the formula I have other interesting properties. Thus the anti-inflammation effect on vessels evaluated according to the technique of Y. Bounameaux and J. Lecomto, 1955, C.R. Soc.

[1] = target: T1, catechol-O-methyltransferase (Rattus norvegicus, UniProt P22734); test: Protection of the catecholamines: incubation of catechol-O-methyltransferase with adrenalin and orthodiphenol (method of Axelrod); assay type: biochemical; details: stoichiometric amounts of adrenalin and orthodiphenol, after 30 minutes
T1 sequence (P22734 1-221 isoform P22734-2): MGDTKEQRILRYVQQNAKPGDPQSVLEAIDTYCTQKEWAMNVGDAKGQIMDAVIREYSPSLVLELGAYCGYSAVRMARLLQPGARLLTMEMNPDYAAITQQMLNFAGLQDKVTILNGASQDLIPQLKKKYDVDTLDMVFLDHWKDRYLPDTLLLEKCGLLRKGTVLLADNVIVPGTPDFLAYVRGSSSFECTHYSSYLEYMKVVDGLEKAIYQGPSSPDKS
Text: Whether administered orally or parenterally they undergo in the organism a monomethylation on one of the two hydroxyl groups, as do all orthodiphenols, (J. Axelrod and M. J. Laroche, 1959, Science, 130, p 800). This monomethylation is due to the action of the catechol-O-methyltransferases (C.O.M.T.), S-adenosyl-L-methionine providing the methyl radicals (J. Axelrod and R. Tomchick, 1958, J. Biol. Chem. 233 p.702). This methylation occurs in the physiological catecholamines, for example, adrenalin, as well as in the synthetic orthodiphenols.
As methylation is a first stage in the destructive pathway, this competition serves to protect the natural catecholamines from early destruction, (J. M. Gazave, P. Canu, M. Baques, and F. Martin, 1971, Biochem and Experim. Biol., X p.89).
Using the techniques of Axelrod et al (op.cit.) it is possible to quantify this effect for various compounds, as the intensity of the effect varies, being dependent on the chemical composition and physical properties, especially the solubility of the compound.
By incubating a catechol-O-methyltransferase with stoichiometric amounts of adrenalin and an orthodiphenol according to the method of Axelrod, determining the quantity of adrenalin protected ie. non-methylated after 30 minutes the extent of the protection given by the product studied can be evaluated.

guinea pig = test: Capillary resistance on the guinea pig (technique of Parrot and Canu); assay type: in vivo
Text: Experiments on capillary resistance on the guinea pig using the technique of J-L. Parrot and P. Canu, 1964, Arch. […] (By comparison trioxyethylrutine gives an increase of 13%).

in vivo [2] = details: rat, acute toxicity, oral administration, rats, read-out: DL 50 A.O
in vivo [3] = details: rat, ip, acute toxicity, intraperitoneal administration, rats, read-out: DL50 A. IP
rats = test: Research into the methemoglobinising properties (spectrophotometric technique of Evelyn and Malby); assay type: in vivo; details: rats treated for 75 days at 0.20 g per kg body weight per day
Text: Certain phenols, in particular pyrocatechol (1,2-dihydroxybenzene) and pyrogallol (1,2,3-trihydroxybenzene), when administered either orally or parenterally to an organism bring about a transformation of the oxyhaemoglobin of the blood to methemoglobin. In oxyhaemoglobin, the iron is in the ferrous state (Fe^+^+) and can transport oxygen; whereas in methemoglobin, the iron is in the ferric state (Fe ^+^+^+) and is unsuitable for transporting oxygen.
It therefore appeared necessary to try to discover if the polyhydroxy compounds used in the preparations of the present invention, in particular 2,3,3',4,4',5'-hexahydroxy benzophenone, would also act as methemoglobinising agents.
This study was carried out using pyrogallol as the comparative substance and the spectrophotometric technique of Evelyn and Malby, (in R. Lecoq, 1972, Analyses Medicales, 2, p.1699): […]

SMILES | protection of adrenalin (non-methylated) [1] | increase in the capillary resistance (guinea pig) | other results
C[C@@H]1O[C@@H](OC[C@H]2O[C@@H](Oc3c(-c4ccc(OCCO)c(OCCO)c4)oc4cc(OCCO)cc(O)c4c3=O)[C@H](O)[C@@H](O)[C@@H]2O)[C@H](O)[C@H](O)[C@H]1O [trioxyethylrutine, reference compound] |  | 13% | 
O=C(Cc1ccc(O)c(O)c1)c1ccc(O)c(O)c1O [β-(3,4-dihydroxyphenyl)-2,3,4-trihydroxyacetophenone] |  | 34% | LD50 (in vivo [2]): 2000 mg/kg; LD50 (in vivo [3]): 730 mg/kg
O=C(Cc1ccc(O)c(O)c1)c1ccc(O)c(O)c1 [β-(3,4-dihydroxyphenyl)-3,4-dihydroxyacetophenone] | ≥ 90% |  | 
O=C(c1ccc(O)c(O)c1)c1cc(O)c(O)c(O)c1 [3,3',4,4' ,5'-pentahydroxybenzophenone, 3,3',4,4',5'-pentahydroxybenzophenone] | 100% |  | anti-inflammation effect on vessels (mice): anti-inflammatory properties
O=C(c1ccc(O)c(O)c1)c1ccc(O)c(O)c1O [2,3,3',4,4'-pentahydroxybenzophenone] | 100% |  | 
O=C(c1cc(O)c(O)c(O)c1)c1ccc(O)c(O)c1O [2,3,3',4,4',5'-Hexahydroxybenzophenone, 2,3,3',4,4',5'-hexahydroxybenzophenone] | 100% | 82% | LD50 (in vivo [2]): 1420 mg/kg; methemoglobin in the blood (rats): no methemoglobin could be detected; LD50 (in vivo [3]): 355 mg/kg

Second part, led by results:

protection of adrenalin (non-methylated) [1] | SMILES | increase in the capillary resistance (guinea pig) | other results
≥ 90% | O=C(c1ccc(O)c(O)c1)c1cccc(O)c1O [2,3,3',4'-Tetrahydroxybenzophenone, 2,3,3',4'-tetrahydroxybenzophenone] | 56% | anti-inflammation effect on vessels (mice): anti-inflammatory properties
100% | O=C(c1ccc(O)c(O)c1)c1ccc(O)c(O)c1 [3,3',4,4'-tetrahydroxybenzophenone] |  | 
≥ 90% | Oc1ccc(Cc2ccc(O)c(O)c2)cc1O [di-(3,4-dihydroxyphenyl) methane, di-(3,4-dihydroxyphenyl)-methane] |  | 
100% | O=C(C(=O)c1ccc(O)c(O)c1)c1ccc(O)c(O)c1 [3,3',4,4'-tetrahydroxybenzile, 3,3',4,4'-tetrahydroxybenzil] |  | 

— patent US4015017A, “Certain biphenyl derivatives used to treat disorders caused by increased capillary permeability” (Laboratoires Pharmascience, priority 1974, dated 1977)
